Among the test systems are LOX IMVI melanoma; HOP-62 NSCLC; HCC-2998 colon; DU-145 prostate; EKVX NSCLC; RXF 393 renal; UACC-257 melanoma; A498 renal; K-562 leukemia; BT-549 breast.
Common to all, as to assay: DTP human tumour cell line panel, 48 h

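Compound exposure: 48 hours, 5 concentrations, 96-well plates. Here, GI50 denotes the concentration required for 50% inhibition of growth. Definition used: TGI = concentration required for complete inhibition of growth.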 Bounds are passed on as bounds.

The term TGI denotes the concentration giving total growth inhibition. Lower therefore signals greater sensitivity of the cells. Take `CSc1nc(Cl)c(Br)c(Nc2c[nH]c(=O)[nH]c2=O)n1`: the TGI is 39.3 µM in the test with LOX IMVI melanoma; 53.5 µM in the test on HOP-62 NSCLC; 42.2 µM in the test on HCC-2998 colon; 49.9 µM with DU-145 prostate; 33.8 µM with EKVX NSCLC; 45.4 µM in the test with RXF 393 renal. Besides, the TGI in the test on UACC-257 melanoma was 38.7 µM; with A498 renal it was 35.7 µM; in the test with K-562 leukemia it was over 100 µM.

On to `CC(C)O/C=C1\C(=O)C2(SCCS2)[C@H]2CCCC[C@@H]12`, for which the TGI is over 100 µM in the test on HOP-62 NSCLC; over 100 µM with HCC-2998 colon; 57.8 µM in the test on RXF 393 renal; over 100 µM with UACC-257 melanoma; 75 µM in the test with A498 renal; over 100 µM with K-562 leukemia.

Take `CC1=C(C(=O)Nc2ccccc2C)C(c2ccc(N(C)C)cc2)C(C(=O)Nc2ccccc2C)=C(C)N1`: the total growth inhibition concentration (TGI) in the test with LOX IMVI melanoma, with HOP-62 NSCLC, in the test with HCC-2998 colon, with EKVX NSCLC, with RXF 393 renal and with UACC-257 melanoma was over 100 µM each time. For the same compound, the concentration for total growth inhibition (TGI) in the test on A498 renal and in the test on K-562 leukemia was over 100 µM in each case.

On to `COc1ccc(-c2cc(-c3ccccc3)c(C#N)c(=O)[nH]2)cc1`, for which the concentration for total growth inhibition (TGI) in the test on LOX IMVI melanoma, in the test on HOP-62 NSCLC, in the test on HCC-2998 colon, in the test on EKVX NSCLC, with RXF 393 renal and in the test with UACC-257 melanoma was over 100 µM throughout. Also, the TGI in the test with A498 renal and with K-562 leukemia was over 100 µM throughout.

As to `COc1ccc2oc(-c3ccncc3)cc(=O)c2c1`, the TGI with LOX IMVI melanoma, in the test with HOP-62 NSCLC, in the test with HCC-2998 colon, in the test on RXF 393 renal, with UACC-257 melanoma and in the test with A498 renal was over 100 µM throughout. The same compound came in with a TGI in the test with K-562 leukemia of over 100 µM.

As to `CCCNC(=O)c1cc2ccccc2cc1C(=O)OC`, the TGI with HOP-62 NSCLC, in the test on HCC-2998 colon, in the test on EKVX NSCLC, in the test with UACC-257 melanoma, in the test on A498 renal and in the test on K-562 leukemia was over 100 µM in each case.

Regarding `NNC(=O)CC(=O)Nc1ccccc1F`, the TGI in the test with LOX IMVI melanoma, in the test on HOP-62 NSCLC, in the test on HCC-2998 colon, in the test with EKVX NSCLC, in the test with RXF 393 renal and in the test with UACC-257 melanoma was over 100 µM each time. For the same compound, the concentration for total growth inhibition (TGI) in the test with A498 renal and with K-562 leukemia was over 100 µM each time.

Turning to `COc1cc(C)c(C(=O)/C=C/c2cc(OC)c(O)c(OC)c2)cc1O`, the TGI in the test with LOX IMVI melanoma is over 100 µM; in the test with HOP-62 NSCLC, 69.3 µM; in the test on HCC-2998 colon, 30.5 µM; in the test with EKVX NSCLC, over 100 µM; with UACC-257 melanoma, over 100 µM; in the test on A498 renal it was 97.5 µM. Besides, the TGI with K-562 leukemia was over 100 µM.

In the case of `CC1SC2=NC3=C(c4ccccc4C3=O)C(c3ccc(Br)cc3)N2C1=O` (stereo not drawn), the TGI with HOP-62 NSCLC, in the test on HCC-2998 colon, with EKVX NSCLC, in the test with UACC-257 melanoma, in the test with A498 renal and in the test with K-562 leukemia was over 100 µM in each case.

For the compound `O=C1Cc2ccccc2N1/N=C\c1ccc(O)cc1`, the TGI in the test with LOX IMVI melanoma, in the test on HOP-62 NSCLC, with HCC-2998 colon, with EKVX NSCLC, in the test on UACC-257 melanoma and in the test on A498 renal was over 100 µM throughout. In the test with K-562 leukemia, the TGI is over 100 µM.

Take `CCOC(=O)c1c(-c2[nH]c(C(=O)OCc3ccccc3)c(C)c2C(=O)OCC)[nH]c(C(=O)OCc2ccccc2)c1C`: the TGI in the test on LOX IMVI melanoma is over 100 µM; in the test on HOP-62 NSCLC, over 100 µM; in the test with HCC-2998 colon, over 100 µM; in the test with EKVX NSCLC, over 100 µM; in the test with RXF 393 renal it was 86.2 µM; with A498 renal, over 100 µM.

As usually defined, the GI50 is the concentration giving 50% growth inhibition. `O=C(O)c1cn(C2CC2)c2cc(N3CCN(S(=O)(=O)c4ccc(Cl)c(Cl)c4)CC3)c(F)cc2c1=O`: the GI50 in the test with HOP-62 NSCLC was 4.77 µM; with HCC-2998 colon it was 4.46 µM; in the test on DU-145 prostate, 4.31 µM; in the test on BT-549 breast, 2.98 µM; in the test with RXF 393 renal, 2.98 µM; in the test with A498 renal, 2.91 µM. The GI50 in the test on K-562 leukemia was 3.92 µM. Further, the TGI in the test with HOP-62 NSCLC was over 100 µM; in the test on HCC-2998 colon, over 100 µM; in the test with DU-145 prostate, over 100 µM; in the test with BT-549 breast, over 100 µM; in the test on RXF 393 renal it was 9.51 µM; with A498 renal, over 100 µM. Also, the TGI in the test with K-562 leukemia is over 100 µM.

With `Cc1cc(C)cc(Nc2nccc(-c3c(-c4ccc(F)cc4)ncn3C3CCNCC3)n2)c1`, the GI50 in the test with LOX IMVI melanoma was 1.54 µM; with HOP-62 NSCLC, 2.04 µM; in the test on HCC-2998 colon, 1.28 µM; with DU-145 prostate it was 1.46 µM; with BT-549 breast, 1.52 µM; in the test on EKVX NSCLC it was 1.4 µM. Moreover, the results for the GI50 with RXF 393 renal, in the test with UACC-257 melanoma and with K-562 leukemia were 1.39 µM, 2.09 µM and 1.03 µM, respectively. The TGI in the test with LOX IMVI melanoma is 2.88 µM; with HOP-62 NSCLC it was 3.95 µM; in the test on HCC-2998 colon, 2.64 µM; in the test on DU-145 prostate, 3.14 µM; in the test with BT-549 breast it was 3.11 µM; with EKVX NSCLC it was 3.19 µM. Also, the TGI in the test on RXF 393 renal is 2.92 µM; with UACC-257 melanoma it was 4.17 µM; in the test on K-562 leukemia, 3.59 µM.

Regarding `O=C1c2c(c3c4ccccc4n4c3c3c2c2ccccc2n3C/C=C\C4)C(=O)N1Cc1ccccc1`, the concentration for total growth inhibition (TGI) in the test on LOX IMVI melanoma, in the test on HOP-62 NSCLC, in the test on HCC-2998 colon, with EKVX NSCLC, with RXF 393 renal and in the test on UACC-257 melanoma was over 100 µM throughout. In addition, the TGI in the test on A498 renal and with K-562 leukemia was over 100 µM throughout.

For the compound `CC(=O)Nc1ccc(-c2nnc(SCC(=O)Nc3ccccc3[N+](=O)[O-])o2)cc1`, the TGI in the test with LOX IMVI melanoma, with HOP-62 NSCLC, in the test on RXF 393 renal, with UACC-257 melanoma and with K-562 leukemia was over 100 µM each time.

These data come from PubChem BioAssay (NCI).
